Laboratory results published in ChEMBL document CHEMBL2429795, “New route for synthesis, spectroscopy, and X-ray studies of 2-[aryl-(6-hydroxy-4,4-dimethyl-2-oxocyclohex-6-enyl)methyl]-3-hydroxy-5,5-dimethylcyclohex-2-enone and 1,8-dioxo-octahydroxanthenes and antitumor evaluation” (Med Chem Res, 2013).

Tests used:
[1] = test system: MCF7; test: Cytotoxicity against human MCF7 cells assessed as growth inhibition after 48 hrs by sulforhodamine B assay; format: functional, cell-based; conditions: for IC50: MCF7, 48 h
[2] = test system: NCI-H460; test: Cytotoxicity against human NCI-H460 cells assessed as growth inhibition after 48 hrs by sulforhodamine B assay; format: functional, cell-based; conditions: for IC50: NCI-H460, 48 h
[3] = test system: SF-268; test: Cytotoxicity against human SF268 cells assessed as growth inhibition after 48 hrs by sulforhodamine B assay; format: functional, cell-based; conditions: for IC50: SF-268, 48 h
[4] = test system: WI-38; test: Cytotoxicity against human WI38 cells assessed as decrease in cell viability up to 25 uM after 4 to 20 hrs by trypan blue exclusion assay; format: cell-based
[5] = test system: PrEC; test: Cytotoxicity against human PrEC assessed as decrease in cell viability up to 25 uM after 24 hrs by trypan blue exclusion assay; format: cell-based
[6] = test system: PrEC; test: Cytotoxicity against human PrEC assessed as growth inhibition after 48 hrs by trypan blue exclusion assay; format: cell-based; conditions: for IC50: Homo sapiens, PrEC; for growth inhibition (GI): human, prec
[7] = Cytotoxicity against human NCM460 cells assessed as decrease in cell viability up to 25 uM after 4 to 20 hrs by trypan blue exclusion assay; format: cell-based
[8] = test system: WI-38; test: Cytotoxicity against human WI38 cells assessed as growth inhibition after 48 hrs by trypan blue exclusion assay; format: cell-based; conditions: for IC50: Homo sapiens, WI-38, 48 h; for growth inhibition (GI): human, wi-38, 48 h
[9] = Cytotoxicity against human NCM460 cells assessed as growth inhibition after 48 hrs by trypan blue exclusion assay; format: cell-based; conditions: for IC50: Homo sapiens, NCM460, 48 h; for growth inhibition (GI): human, ncm460, 48 h

For `COc1cccc2c1C(=O)c1c(O)c3c(c(O)c1C2=O)C[C@@](O)(C(=O)CO)C[C@@H]3O[C@H]1C[C@H](N)[C@H](O)[C@H](C)O1` [DOXORUBICIN], the IC50 [1] was 40 nM, the IC50 [2] was 90 nM and the IC50 [3] was 90 nM.
For `CC1(C)CC(=O)C(C(C2=C(O)CC(C)(C)CC2=O)c2ccco2)=C(O)C1`, the Activity [4] was “Non-toxic”, the Activity [5] was “Non-toxic” and the “growth inhibition (GI)” value [1] was “Dose-dependent effect”. The IC50 [1] was 30 nM, the “growth inhibition (GI)” value [2] was “Dose-dependent effect” and the IC50 [2] was 30 nM. For the same compound, the IC50 [6] was 330 nM, the “growth inhibition (GI)” value [6] was “Dose-dependent effect” and the Activity [7] was “Non-toxic”. For the same compound, the IC50 [8] was 80 nM, the “growth inhibition (GI)” value [8] was “Dose-dependent effect” and the “growth inhibition (GI)” value [3] was “Dose-dependent effect”. For the same compound, the IC50 [3] was 30 nM, the IC50 [9] was 60 nM and the “growth inhibition (GI)” value [9] was “Dose-dependent effect”.
With `CC1(C)CC(=O)C(C(C2=C(O)CC(C)(C)CC2=O)c2ccccc2)=C(O)C1` the Activity [4] was “Non-toxic”, the Activity [5] was “Non-toxic” and the “growth inhibition (GI)” value [1] was “Dose-dependent effect”. For the same compound, the IC50 [1] was 20 nM, the “growth inhibition (GI)” value [2] was “Dose-dependent effect” and the IC50 [2] was 10 nM. For the same compound, the IC50 [6] was 1290 nM, the “growth inhibition (GI)” value [6] was “Dose-dependent effect” and the Activity [7] was “Non-toxic”. The IC50 [8] was 2180 nM, the “growth inhibition (GI)” value [8] was “Dose-dependent effect” and the “growth inhibition (GI)” value [3] was “Dose-dependent effect”. For the same compound, the IC50 [3] was 20 nM, the IC50 [9] was 2430 nM and the “growth inhibition (GI)” value [9] was “Dose-dependent effect”.
In the case of `CC1(C)CC(=O)C2=C(C1)OC1=C(C(=O)CC(C)(C)C1)C2c1ccccc1`, the Activity [4] is reported as “Non-toxic”, the Activity [5] is reported as “Non-toxic” and the “growth inhibition (GI)” value [1] is reported as “Dose-dependent effect”. For the same compound, the IC50 [1] was 30400 nM, the “growth inhibition (GI)” value [2] was “Dose-dependent effect” and the IC50 [2] was 20100 nM. For the same compound, the IC50 [6] was 450 nM, the “growth inhibition (GI)” value [6] was “Dose-dependent effect” and the Activity [7] was “Non-toxic”. The IC50 [8] was 470 nM, the “growth inhibition (GI)” value [8] was “Dose-dependent effect” and the “growth inhibition (GI)” value [3] was “Dose-dependent effect”. The IC50 [3] was 36300 nM, the IC50 [9] was 90 nM and the “growth inhibition (GI)” value [9] was “Dose-dependent effect”.
